Assay results reported in ChEMBL document CHEMBL1641539 (Bioorg Med Chem Lett, 2011).

How the values were obtained:
[1] = biological target: Mitogen-activated protein kinase 1 (Homo sapiens, UniProt P28482); experiment: Inhibition of recombinant ERK2 after 60 mins by TR-FRET assay
[2] = biological target: Mitogen-activated protein kinase 9 (Homo sapiens, UniProt P45984); experiment: Inhibition of recombinant JNK2 after 60 mins by TR-FRET assay
[3] = biological target: Serine/threonine-protein kinase MARK2 (Homo sapiens) (UniProt Q7KZI7); experiment: Inhibition of MARK2 at 10 uM after 60 mins by TR-FRET assay
Serine/threonine-protein kinase MARK2 (Homo sapiens), sequence (Q7KZI7 whole entry): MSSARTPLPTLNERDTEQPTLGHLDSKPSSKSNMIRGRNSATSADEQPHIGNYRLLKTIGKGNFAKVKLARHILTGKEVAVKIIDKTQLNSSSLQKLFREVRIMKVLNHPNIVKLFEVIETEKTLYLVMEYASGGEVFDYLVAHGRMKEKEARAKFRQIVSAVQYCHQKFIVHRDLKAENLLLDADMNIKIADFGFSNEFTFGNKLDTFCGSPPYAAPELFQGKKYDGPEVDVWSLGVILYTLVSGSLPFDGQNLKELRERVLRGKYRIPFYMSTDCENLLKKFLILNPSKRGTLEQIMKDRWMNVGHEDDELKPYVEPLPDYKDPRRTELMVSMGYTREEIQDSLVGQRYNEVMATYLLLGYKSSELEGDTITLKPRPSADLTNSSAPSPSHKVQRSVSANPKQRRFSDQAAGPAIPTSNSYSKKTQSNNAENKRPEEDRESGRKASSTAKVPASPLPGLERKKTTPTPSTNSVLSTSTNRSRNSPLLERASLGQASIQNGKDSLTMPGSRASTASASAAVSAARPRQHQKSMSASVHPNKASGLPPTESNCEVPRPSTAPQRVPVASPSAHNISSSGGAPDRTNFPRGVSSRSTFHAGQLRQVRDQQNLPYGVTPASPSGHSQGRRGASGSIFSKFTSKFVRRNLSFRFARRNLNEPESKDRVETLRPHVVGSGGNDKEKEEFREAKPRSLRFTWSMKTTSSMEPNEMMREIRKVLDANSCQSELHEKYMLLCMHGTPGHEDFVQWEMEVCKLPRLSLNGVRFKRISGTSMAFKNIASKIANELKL

[4] = biological target: Macrophage colony-stimulating factor 1 receptor (Homo sapiens) (UniProt P07333); experiment: Inhibition of CSF1R at 10 uM after 60 mins by TR-FRET assay
[5] = biological target: Tyrosine-protein kinase Lck (Homo sapiens) (UniProt P06239); experiment: Inhibition of LCK at 10 uM after 60 mins by TR-FRET assay
Tyrosine-protein kinase Lck (Homo sapiens), sequence (P06239 2-509 limits assumed): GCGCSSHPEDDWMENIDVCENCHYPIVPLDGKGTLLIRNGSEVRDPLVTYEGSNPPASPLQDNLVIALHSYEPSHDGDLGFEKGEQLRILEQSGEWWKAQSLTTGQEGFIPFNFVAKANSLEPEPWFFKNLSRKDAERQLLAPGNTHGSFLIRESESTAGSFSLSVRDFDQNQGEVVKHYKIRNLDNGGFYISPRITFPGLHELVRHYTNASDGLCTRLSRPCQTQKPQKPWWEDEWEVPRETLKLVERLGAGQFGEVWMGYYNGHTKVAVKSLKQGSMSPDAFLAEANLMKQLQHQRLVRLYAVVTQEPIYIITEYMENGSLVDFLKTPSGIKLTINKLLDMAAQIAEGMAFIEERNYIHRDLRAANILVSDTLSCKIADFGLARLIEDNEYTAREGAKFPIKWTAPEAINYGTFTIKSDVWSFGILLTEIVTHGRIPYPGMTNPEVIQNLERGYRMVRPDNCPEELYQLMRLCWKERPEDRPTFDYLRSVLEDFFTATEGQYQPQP

[6] = biological target: T1, Serine/threonine-protein kinase 3 (Homo sapiens) (UniProt Q13188); experiment: Inhibition of STK3 at 10 uM after 60 mins by TR-FRET assay
T1 sequence (whole entry): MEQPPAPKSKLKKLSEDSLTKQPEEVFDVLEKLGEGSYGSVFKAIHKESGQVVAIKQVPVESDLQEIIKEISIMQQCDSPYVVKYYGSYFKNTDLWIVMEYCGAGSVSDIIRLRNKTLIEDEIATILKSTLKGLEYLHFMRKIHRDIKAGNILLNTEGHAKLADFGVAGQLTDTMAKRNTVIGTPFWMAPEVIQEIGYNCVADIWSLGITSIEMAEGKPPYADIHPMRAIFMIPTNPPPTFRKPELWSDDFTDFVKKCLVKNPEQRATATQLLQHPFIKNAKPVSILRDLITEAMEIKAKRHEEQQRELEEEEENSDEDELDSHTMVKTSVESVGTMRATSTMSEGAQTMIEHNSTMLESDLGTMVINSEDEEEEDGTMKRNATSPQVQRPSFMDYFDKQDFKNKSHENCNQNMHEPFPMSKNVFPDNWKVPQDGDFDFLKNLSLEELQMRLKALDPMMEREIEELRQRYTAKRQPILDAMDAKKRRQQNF

[7] = biological target: PI3-kinase p110-alpha/p85-alpha (Homo sapiens) (UniProt P27986+P42336); experiment: Inhibition of p110alpha/p85alpha at 10 uM after 60 mins by TR-FRET assay; format: protein-complex assay
[8] = biological target: Dual specificity tyrosine-phosphorylation-regulated kinase 1B (Homo sapiens) (UniProt Q9Y463); experiment: Inhibition of DYRK1B at 10 uM after 60 mins by TR-FRET assay
[9] = biological target: Protein kinase C beta type (Homo sapiens) (UniProt P05771); experiment: Inhibition of PRKCB1 at 10 uM after 60 mins by TR-FRET assay
Protein kinase C beta type (Homo sapiens), sequence (P05771 2-671 limits assumed): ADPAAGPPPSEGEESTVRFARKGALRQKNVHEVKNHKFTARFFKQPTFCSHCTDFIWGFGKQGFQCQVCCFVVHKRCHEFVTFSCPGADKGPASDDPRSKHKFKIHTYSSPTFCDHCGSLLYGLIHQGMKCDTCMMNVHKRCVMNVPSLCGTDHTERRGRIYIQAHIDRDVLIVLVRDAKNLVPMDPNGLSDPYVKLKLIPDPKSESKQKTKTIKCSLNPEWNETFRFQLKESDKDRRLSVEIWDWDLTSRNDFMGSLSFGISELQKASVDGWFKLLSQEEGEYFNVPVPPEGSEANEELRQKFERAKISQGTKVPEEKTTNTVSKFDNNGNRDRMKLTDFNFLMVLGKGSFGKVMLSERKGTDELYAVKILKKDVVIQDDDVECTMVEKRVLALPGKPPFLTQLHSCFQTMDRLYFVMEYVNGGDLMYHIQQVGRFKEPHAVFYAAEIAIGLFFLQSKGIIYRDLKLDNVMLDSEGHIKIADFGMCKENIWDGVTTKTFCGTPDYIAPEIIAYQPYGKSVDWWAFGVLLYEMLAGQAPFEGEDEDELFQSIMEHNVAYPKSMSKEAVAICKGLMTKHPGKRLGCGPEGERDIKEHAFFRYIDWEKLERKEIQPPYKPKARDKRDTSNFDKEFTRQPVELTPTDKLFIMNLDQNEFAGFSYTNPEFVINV

[10] = biological target: Tyrosine-protein kinase ABL1 (Homo sapiens) (UniProt P00519); experiment: Inhibition of ABL1 at 10 uM after 60 mins by TR-FRET assay
Tyrosine-protein kinase ABL1 (Homo sapiens), sequence (P00519 whole entry): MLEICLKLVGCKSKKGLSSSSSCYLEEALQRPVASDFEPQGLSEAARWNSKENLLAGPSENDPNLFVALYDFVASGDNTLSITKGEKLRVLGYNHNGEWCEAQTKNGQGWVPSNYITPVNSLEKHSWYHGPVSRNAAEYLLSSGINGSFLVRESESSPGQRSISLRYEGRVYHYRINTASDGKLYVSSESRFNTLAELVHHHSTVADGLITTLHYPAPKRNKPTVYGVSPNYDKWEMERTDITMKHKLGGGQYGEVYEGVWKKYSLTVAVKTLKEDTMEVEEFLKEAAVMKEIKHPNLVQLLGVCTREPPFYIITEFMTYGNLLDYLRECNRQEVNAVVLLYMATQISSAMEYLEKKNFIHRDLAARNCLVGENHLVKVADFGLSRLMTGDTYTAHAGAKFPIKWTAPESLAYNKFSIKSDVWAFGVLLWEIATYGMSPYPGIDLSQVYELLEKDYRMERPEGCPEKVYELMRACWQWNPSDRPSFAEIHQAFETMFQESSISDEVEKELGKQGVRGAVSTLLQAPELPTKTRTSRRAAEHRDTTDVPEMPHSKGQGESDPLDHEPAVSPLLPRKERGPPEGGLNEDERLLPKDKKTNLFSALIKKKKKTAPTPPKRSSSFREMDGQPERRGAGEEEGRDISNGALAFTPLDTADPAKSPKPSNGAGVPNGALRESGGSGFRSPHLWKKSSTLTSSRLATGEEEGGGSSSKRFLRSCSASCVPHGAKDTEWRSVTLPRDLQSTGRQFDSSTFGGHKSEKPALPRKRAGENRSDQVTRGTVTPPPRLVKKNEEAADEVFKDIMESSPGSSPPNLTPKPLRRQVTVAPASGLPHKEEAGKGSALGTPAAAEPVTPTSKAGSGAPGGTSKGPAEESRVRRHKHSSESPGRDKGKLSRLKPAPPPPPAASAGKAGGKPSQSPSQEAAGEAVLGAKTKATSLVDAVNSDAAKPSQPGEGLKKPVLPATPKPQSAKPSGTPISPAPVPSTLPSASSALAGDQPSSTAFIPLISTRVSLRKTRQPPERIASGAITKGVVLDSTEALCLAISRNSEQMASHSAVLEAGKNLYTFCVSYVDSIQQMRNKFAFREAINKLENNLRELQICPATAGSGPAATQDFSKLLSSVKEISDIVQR

[11] = biological target: Mitogen-activated protein kinase 14 (Homo sapiens, UniProt Q16539); experiment: Inhibition of recombinant p38alpha after 60 mins by TR-FRET assay
[12] = biological target: Protein-tyrosine kinase 2-beta (Homo sapiens) (UniProt Q14289); experiment: Inhibition of PTK2B at 10 uM after 60 mins by TR-FRET assay
[13] = biological target: Cyclin-dependent kinase 1/cyclin B (Homo sapiens) (UniProt P06493+P14635+Q8WWL7+O95067); experiment: Inhibition of CDK1/cyclin B at 10 uM after 60 mins by TR-FRET assay; format: protein-complex assay
[14] = biological target: Rho-associated protein kinase 2 (Homo sapiens) (UniProt O75116); experiment: Inhibition of ROCK2 at 10 uM after 60 mins by TR-FRET assay
[15] = biological target: Receptor-type tyrosine-protein kinase FLT3 (Homo sapiens) (UniProt P36888); experiment: Inhibition of FLT3 at 10 uM after 60 mins by TR-FRET assay
[16] = biological target: Leucine-rich repeat serine/threonine-protein kinase 2 (Homo sapiens) (UniProt Q5S007); experiment: Inhibition of LRRK2 at 10 uM after 60 mins by TR-FRET assay
[17] = biological target: Glycogen synthase kinase-3 beta (Homo sapiens) (UniProt P49841); experiment: Inhibition of GSK3B at 10 uM after 60 mins by TR-FRET assay
[18] = biological target: Cyclin-dependent kinase 2/cyclin A (Homo sapiens) (UniProt P24941+P20248+P78396); experiment: Inhibition of CDK2/cyclin A at 10 uM after 60 mins by TR-FRET assay; format: protein-complex assay
[19] = biological target: T2, Aurora kinase A (Homo sapiens) (UniProt O14965); experiment: Inhibition of Aurora A at 10 uM after 60 mins by TR-FRET assay
T2 sequence (whole entry): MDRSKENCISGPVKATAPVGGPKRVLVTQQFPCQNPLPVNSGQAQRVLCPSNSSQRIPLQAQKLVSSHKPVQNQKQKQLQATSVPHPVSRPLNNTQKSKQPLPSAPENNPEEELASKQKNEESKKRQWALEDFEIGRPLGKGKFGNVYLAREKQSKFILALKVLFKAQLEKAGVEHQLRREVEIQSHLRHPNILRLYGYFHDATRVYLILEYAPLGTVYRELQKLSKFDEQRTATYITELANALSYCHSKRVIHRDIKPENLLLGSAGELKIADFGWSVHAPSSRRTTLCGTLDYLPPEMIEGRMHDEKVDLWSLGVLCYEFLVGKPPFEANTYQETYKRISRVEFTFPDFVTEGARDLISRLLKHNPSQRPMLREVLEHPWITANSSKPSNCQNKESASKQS

[20] = biological target: Platelet-derived growth factor receptor alpha (Homo sapiens) (UniProt P16234); experiment: Inhibition of PDGFRA at 10 uM after 60 mins by TR-FRET assay
[21] = biological target: Serine/threonine-protein kinase PLK2 (Homo sapiens) (UniProt Q9NYY3); experiment: Inhibition of PLK2 at 10 uM after 60 mins by TR-FRET assay
[22] = biological target: Tyrosine-protein kinase SYK (Homo sapiens) (UniProt P43405); experiment: Inhibition of SYK at 10 uM after 60 mins by TR-FRET assay
[23] = biological target: Insulin receptor (Homo sapiens) (UniProt P06213); experiment: Inhibition of INSR at 10 uM after 60 mins by TR-FRET assay
[24] = biological target: Cyclin-dependent kinase 5/CDK5 activator 1 (Homo sapiens) (UniProt Q00535+Q15078); experiment: Inhibition of CDK5/p25 at 10 uM after 60 mins by TR-FRET assay; format: protein-complex assay
[25] = biological target: RAC-alpha serine/threonine-protein kinase (Homo sapiens) (UniProt P31749); experiment: Inhibition of AKT1 at 10 uM after 60 mins by TR-FRET assay
RAC-alpha serine/threonine-protein kinase (Homo sapiens), sequence (P31749 whole entry): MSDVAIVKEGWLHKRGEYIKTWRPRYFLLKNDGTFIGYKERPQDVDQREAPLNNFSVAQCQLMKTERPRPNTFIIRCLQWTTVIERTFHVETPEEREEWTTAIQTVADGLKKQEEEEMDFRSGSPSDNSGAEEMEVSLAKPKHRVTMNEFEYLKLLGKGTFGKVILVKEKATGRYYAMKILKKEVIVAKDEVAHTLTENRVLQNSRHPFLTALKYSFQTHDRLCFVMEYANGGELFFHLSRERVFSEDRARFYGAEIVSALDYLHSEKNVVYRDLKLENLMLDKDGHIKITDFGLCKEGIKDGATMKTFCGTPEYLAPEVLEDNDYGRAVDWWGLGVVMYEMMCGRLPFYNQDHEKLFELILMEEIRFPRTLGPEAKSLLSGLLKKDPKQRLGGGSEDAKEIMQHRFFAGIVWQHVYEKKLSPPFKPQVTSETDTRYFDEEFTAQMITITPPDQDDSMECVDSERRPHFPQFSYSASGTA

[26] = biological target: Mitogen-activated protein kinase 10 (Homo sapiens, UniProt P53779); experiment: Inhibition of MAPK10 at 10 uM after 60 mins by TR-FRET assay
Mitogen-activated protein kinase 10, sequence (P53779 whole entry): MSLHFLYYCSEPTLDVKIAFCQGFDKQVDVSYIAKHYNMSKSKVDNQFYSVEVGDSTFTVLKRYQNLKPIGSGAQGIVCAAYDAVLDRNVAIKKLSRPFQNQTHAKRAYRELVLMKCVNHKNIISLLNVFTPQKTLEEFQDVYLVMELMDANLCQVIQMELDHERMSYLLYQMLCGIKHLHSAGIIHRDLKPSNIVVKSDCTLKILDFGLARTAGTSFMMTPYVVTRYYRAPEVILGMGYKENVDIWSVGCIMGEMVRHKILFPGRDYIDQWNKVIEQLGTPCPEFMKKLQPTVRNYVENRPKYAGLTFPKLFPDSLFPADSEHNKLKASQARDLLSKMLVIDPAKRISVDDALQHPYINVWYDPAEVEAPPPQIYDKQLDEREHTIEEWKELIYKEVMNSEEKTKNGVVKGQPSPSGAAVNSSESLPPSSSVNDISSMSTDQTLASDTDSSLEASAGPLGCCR

[27] = biological target: Proto-oncogene tyrosine-protein kinase receptor Ret (Homo sapiens) (UniProt P07949); experiment: Inhibition of RET at 10 uM after 60 mins by TR-FRET assay

Mitogen-activated protein kinase 1, sequence (P28482 whole entry): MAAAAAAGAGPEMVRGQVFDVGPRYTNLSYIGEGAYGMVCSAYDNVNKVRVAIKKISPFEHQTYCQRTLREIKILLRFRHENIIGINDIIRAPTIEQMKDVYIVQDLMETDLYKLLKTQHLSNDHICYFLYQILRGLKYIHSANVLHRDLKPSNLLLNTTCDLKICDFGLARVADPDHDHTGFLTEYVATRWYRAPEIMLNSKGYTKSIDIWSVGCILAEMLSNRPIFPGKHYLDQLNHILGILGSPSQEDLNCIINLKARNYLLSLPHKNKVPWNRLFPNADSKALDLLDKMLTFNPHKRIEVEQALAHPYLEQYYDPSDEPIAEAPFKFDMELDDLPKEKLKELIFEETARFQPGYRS
Mitogen-activated protein kinase 9, sequence (P45984 whole entry): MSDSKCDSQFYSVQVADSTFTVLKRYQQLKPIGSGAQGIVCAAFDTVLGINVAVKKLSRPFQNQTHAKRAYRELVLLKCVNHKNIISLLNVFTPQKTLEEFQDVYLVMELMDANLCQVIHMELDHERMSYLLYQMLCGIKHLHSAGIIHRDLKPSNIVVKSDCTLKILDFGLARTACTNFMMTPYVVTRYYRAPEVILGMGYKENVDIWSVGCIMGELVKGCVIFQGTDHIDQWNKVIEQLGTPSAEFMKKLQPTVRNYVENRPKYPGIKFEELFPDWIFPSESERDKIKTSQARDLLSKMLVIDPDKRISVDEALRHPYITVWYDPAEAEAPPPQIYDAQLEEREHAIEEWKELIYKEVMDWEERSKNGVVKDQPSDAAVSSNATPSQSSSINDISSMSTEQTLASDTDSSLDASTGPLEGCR

O=c1[nH]nc(-c2ccnc(NC3CCCCC3)c2)n1-c1ccc2ccccc2c1
IC50 [1]: > 50 µM | IC50 [2]: 0.069 µM | inhibition [3]: 1% | inhibition [4]: -1% | inhibition [5]: -10% | inhibition [6]: -9% | inhibition [7]: 29% | inhibition [8]: 20% | inhibition [9]: 2% | inhibition [10]: 4% | IC50 [11]: > 50 µM | inhibition [12]: -3% | inhibition [13]: 5% | inhibition [14]: 15% | inhibition [15]: 12% | inhibition [16]: 11% | inhibition [17]: 38% | inhibition [18]: 2% | inhibition [19]: 17% | inhibition [20]: 1% | inhibition [21]: 15% | inhibition [22]: 8% | inhibition [23]: 5% | inhibition [24]: 8% | inhibition [25]: -1% | inhibition [26]: 72% | inhibition [27]: 4%

O=c1[nH]nc(-c2ccnc(NC3CCOCC3)c2)n1-c1ccc2ccccc2c1
IC50 [1]: > 50 µM | IC50 [2]: 0.25 µM | inhibition [3]: 4% | inhibition [4]: 74% | inhibition [5]: -3% | inhibition [6]: -4% | inhibition [7]: 49% | inhibition [8]: 22% | inhibition [9]: 11% | inhibition [10]: 5% | IC50 [11]: > 50 µM | inhibition [12]: 2% | inhibition [13]: 10% | inhibition [14]: 10% | inhibition [15]: 32% | inhibition [16]: 25% | inhibition [17]: 73% | inhibition [18]: 35% | inhibition [19]: 30% | inhibition [20]: 1% | inhibition [21]: 33% | inhibition [22]: 14% | inhibition [23]: 8% | inhibition [24]: 24% | inhibition [25]: 3% | inhibition [26]: 73% | inhibition [27]: 11%

O=c1n(Cc2ccccn2)nc(-c2ccnc(NC3CCOCC3)c2)n1-c1ccc2ccccc2c1
IC50 [1]: > 50 µM | IC50 [2]: 0.093 µM | inhibition [3]: -2% | inhibition [4]: 4% | inhibition [5]: -2% | inhibition [6]: -9% | inhibition [7]: -5% | inhibition [8]: 1% | inhibition [9]: 7% | inhibition [10]: 1% | IC50 [11]: > 50 µM | inhibition [12]: -7% | inhibition [13]: 2% | inhibition [14]: 5% | inhibition [15]: 11% | inhibition [16]: 7% | inhibition [17]: 7% | inhibition [18]: -6% | inhibition [19]: 2% | inhibition [20]: -10% | inhibition [21]: 5% | inhibition [22]: 1% | inhibition [23]: 7% | inhibition [24]: 0% | inhibition [25]: -5% | inhibition [26]: 72% | inhibition [27]: -1%

O=c1[nH]nc(-c2ccnc(NC3CCCOC3)c2)n1-c1ccc2ccccc2c1 (configuration not stated)
IC50 [1]: 22 µM | IC50 [2]: 0.13 µM | inhibition [3]: 1% | inhibition [4]: 60% | inhibition [5]: 4% | inhibition [6]: -5% | inhibition [7]: 34% | inhibition [8]: 76% | inhibition [9]: 10% | inhibition [10]: 17% | IC50 [11]: > 50 µM | inhibition [12]: 11% | inhibition [13]: 4% | inhibition [14]: 8% | inhibition [15]: 23% | inhibition [16]: 29% | inhibition [17]: 81% | inhibition [18]: 3% | inhibition [19]: 10% | inhibition [20]: 12% | inhibition [21]: 62% | inhibition [22]: 70% | inhibition [23]: 18% | inhibition [24]: 15% | inhibition [25]: 0% | inhibition [26]: 81% | inhibition [27]: 37%

O=c1n(C2CCOCC2)nc(-c2ccnc(NC3CCCCC3)c2)n1-c1ccc2ccccc2c1
IC50 [1]: > 50 µM | IC50 [2]: 0.097 µM | inhibition [3]: 0% | inhibition [4]: 7% | inhibition [5]: -6% | inhibition [6]: -10% | inhibition [7]: 0% | inhibition [8]: 39% | inhibition [9]: 7% | inhibition [10]: 5% | IC50 [11]: > 50 µM | inhibition [12]: -2% | inhibition [13]: 4% | inhibition [14]: 9% | inhibition [15]: 8% | inhibition [16]: 7% | inhibition [17]: 15% | inhibition [18]: 0% | inhibition [19]: 0% | inhibition [20]: 7% | inhibition [21]: 26% | inhibition [22]: 26% | inhibition [23]: 10% | inhibition [24]: 3% | inhibition [25]: 0% | inhibition [26]: 86% | inhibition [27]: 10%

O=c1n(Cc2ccncc2)nc(-c2ccnc(NC3CCCCC3)c2)n1-c1ccc2ccccc2c1
IC50 [1]: > 50 µM | IC50 [2]: 0.097 µM | inhibition [3]: 0% | inhibition [4]: 1% | inhibition [5]: 9% | inhibition [6]: 5% | inhibition [7]: 6% | inhibition [8]: 18% | inhibition [9]: 19% | inhibition [10]: -2% | IC50 [11]: > 50 µM | inhibition [12]: 6% | inhibition [13]: 8% | inhibition [14]: 6% | inhibition [15]: 20% | inhibition [16]: -9% | inhibition [17]: 13% | inhibition [18]: 3% | inhibition [19]: -5% | inhibition [20]: 1% | inhibition [21]: 0% | inhibition [22]: 7% | inhibition [23]: 2% | inhibition [24]: -3% | inhibition [25]: -2% | inhibition [26]: 76% | inhibition [27]: 3%
